Test results taken from patent US20040077540A1, “Compositions and methods for modulating physiology of epithelial junctional adhesion molecules for enhanced mucosal delivery of therapeutic compounds” (Nastech Pharmaceutical Company Inc., priority 2002, published 2004).
Like-named read-outs stand apart in the source and are kept apart here. Where a SMILES comes first, the peptide text is derived from it. Where no end group is shown, it is not given here.

Columns and labels:
[1] = tested on: ciliary beating frequency; conditions: cited from earlier work
[2] = tested on: EpiAirway™ units (mucosal epithelial tissue); experiment: LDH assay, cytolysis of EpiAirway units; assay type: cell-based
Description: While measurement of mitochondrial reductase activity by MTT reduction is a sensitive probe of cell viability, the assay necessarily destroys the cells and therefore can be carried out only at the end of each study. When cells undergo necrotic lysis, their cytotosolic contents are spilled into the surrounding medium, and cytosolic enzymes such as lactate dehydrogenase (LDH) can be detected in this medium. An assay for LDH in the medium can be performed on samples of medium removed at each time point of the two-hour determination of permeation kinetics. […] A. The recommended LDH assay for evaluating cytolysis of the EpiAirway™ units is based on conversion of lactate to pyruvate with generation of NADH from NAD. […] The formazan formed from reduction of INT is soluble, so that the entire assay for LDH activity can be carried out in a homogenous aqueous medium containing lactate, NAD, diaphorase, and INT. B. The assay for LDH activity is carried out on 50 μL aliquots from samples of “supernatant” medium surrounding an EpiAirway™ unit and collected at each time point. These samples were either stored for no longer than 24 h in the refrigerator or were thawed after being frozen within a few hours after collection. […] The aliquots are all transferred to a 96 well microplate. C. […] Thus, within experimental error, these sham-treated units show no cytolysis of the epithelial cells over the time course of the permeation kinetics measurements. D. […] This freeze-thaw cycle effectively lyses the cells and releases their cytosolic contents, including LDH, into the supernatant medium. […] E. To each well containing an aliquot of supernatant medium, a 50 μL aliquot of the LDH assay reagent is added. […] F. The reactions are terminated by addition of a “stop” solution of 1 M acetic acid, and within one hour of addition of the stop solution, the absorbance of the plate is determined at 490 nm. G.

[3] = MTT assay, viability of mucosal epithelial tissue; assay type: cell-based; set-up: concentration or dose not given beside the values; conditions: human, EpiAirway™ units (mucosal epithelial tissue)
Description: MTT is a cell-permeable tetrazolium salt which is reduced by mitochondrial dehydrogenase activity to an insoluble colored formazan by viable cells with intact mitochondrial function or by nonmitochondrial NAD(P)H dehydrogenase activity from cells capable of generating a respiratory burst. […] We have employed a MTT reagent kit prepared by MatTek Corp for their units in order to assess viability.
A. The MTT reagent is supplied as a concentrate and is diluted into a proprietary DMEM-based diluent on the day viability is to be assayed (typically the afternoon of the day in which permeation kinetics and TER were determined in the morning). The final MTT concentration is 1 mg/mL
B. The final MTT solution is added to wells of a 24-well microplate at a volume of 300 μL per well. As has been noted above, this volume is sufficient to contact the membranes of the EpiAirway™ units but imposes no significant positive hydrostatic pressure on the cells.
C. The units are removed from the 24-well plate in which they were placed after TER measurements, and after removing any excess liquid from the exterior surface of the units, they are transferred to the plate containing MTT reagent. The units in the plate are then placed in an incubator at 37° C. in an atmosphere of 5% CO2 in air for 3 hours.
D. At the end of the 3-hour incubation, the units containing viable cells will have turned visibly purple. The insoluble formazan must be extracted from the cells in their units to quantitate the extent of MTT reduction. Extraction of the formazan is accomplished by transferring the units to a 24-well microplate containing 2 mL extractant solution per well, after removing excess liquid from the exterior surface of the units as before. This volume is sufficient to completely cover both the membrane and the apical surface of the units. Extraction is allowed to proceed overnight at room temperature in a light-tight chamber. MTT extractants traditionally contain high concentrations of detergent, and destroy the cells.
E. At the end of the extraction, the fluid from within each unit and the fluid in its surrounding well are combined and transferred to a tube for subsequent aliquotting into a 96-well microplate (200 μL aliquots are optimal) and determination of absorbance at 570 nm on a VMax multiwell microplate spectrophotometer. […] The “blank” for the determination of formazan absorbance is a 200 μL aliquot of extractant to which no unit had been exposed. This absorbance value is assumed to constitute zero viability.
F. Two units from each kit of 24 EpiAirway™ units are left untreated during determination of permeation kinetics and TER. These units are employed as the positive control for 100% cell viability. In all the studies conducted, there was no statistically significant difference in the viability of the cells in these untreated cells compared to viability of cells in control units which had been sham treated for permeation kinetics and on which TER determinations had been performed. The absorbance of all units treated with test formulations is assumed to be linearly proportional to the percent viability of the cells in the units at the time of the incubation with MTT. It should be noted that this assay is carried out typically no sooner than four hours after introduction of the test material to the apical surface, and subsequent to rinsing of the apical surface of the units during TER determination.
The MTT assays were performed using MTT-100, MatTek kits. […] of the MTT solution was added into each well. Tissue inserts were gently rinsed with clean PBS and placed in the MTT solution. The samples were incubated at 37° C. for 3 hours. After incubation the cell culture inserts were then immersed with 2.0 mL of the extractant solution per well to completely cover each insert. The extraction plate was covered and sealed to reduce evaporation. Extraction proceeds overnight at RT in the dark. […]

[4] = aqueous solution at physiologic pH; cited from earlier work
[5] = intraduodenal, rats, with 1% (w/v) saline dispersion of polycarbophil vs aqueous solution without polymer; cited from earlier work
[6] = tested on: ciliary function in epithelial cell cultures; conditions: cited from earlier work
aminopeptidases = conditions: cited from earlier work
[7] = formulations comprising the permeabilizing peptide
[8] = formulations comprising the permeabilizing peptide, read-out: MTT assay results (viability)

Molecule | toxic effects on viability of mucosal epithelial tissue, LDH assay [2, 7] | viability [3, 8] | also measured
CCO [ethanol] | – | – | concentration reducing the in vitro ciliary beating frequency [1]: greater than 2%
CC[C@H](C)[C@H](NC(=O)[C@H](CCCNC(=N)N)NC(=O)[C@@H](N)C(C)C)C(=O)N1CCC[C@H]1C(=O)O [NP-A, VRIP] (H-VRIP-OH) | no significant toxic effects | > 80% | –
GFSSPRVEW [NP-21] | – | – | toxic effects on viability of mucosal epithelial tissue, LDH assay [2]: no significant toxic effects; viability [3]: > 80%
ALCNQFYTP [NP-25] | no significant toxic effects | > 80% | –
NCCN(CCN)/[N+]([O-])=N/O [diethylenetriamine/NO] | – | – | rate (time) of NO release [4]: approximately 20 hours
GSLYGSQIY [NP-23] | no significant toxic effects | > 80% | –
NTIIRDFYNP [NP-10] | no significant adverse effects | > 80% | –
CC[C@H](C)[C@H](N)C(=O)N[C@H](C(=O)N[C@@H](C)C(=O)N[C@@H](CO)C(=O)O)[C@@H](C)O [NP-D, ITAS] (H-ITAS-OH) | no significant toxic effects | > 80% | –
VPDSMKFEIG [NP-30] | no significant adverse effects | > 80% | –
EDTGTYTCM [NP-8] | – | – | toxic effects on viability of mucosal epithelial tissue, LDH assay [2]: no significant toxic effects; viability [3]: > 80%
VKLSCAY [NP-B, VKLSCAY] | – | – | toxic effects on viability of mucosal epithelial tissue, LDH assay [2]: no significant toxic effects; viability [3]: > 80%
CCN(CC)/[N+]([O-])=N/O.CCNCC [diethylamine/NO] | – | – | rate (time) of NO release [4]: < 3 min
TGITFKSVT [NP-C] | – | – | toxic effects on viability of mucosal epithelial tissue, LDH assay [2]: no significant toxic effects; viability [3]: > 80%
GVNPTAQSS [NP-22] | no significant toxic effects | > 80% | –
DIYSTLLGLP [NP-41] | no significant adverse effects | > 80% | –
VPVSQKYELG [NP-32] | no significant adverse effects | > 80% | –
GFSLGLWMEC [NP-42] | no significant adverse effects | > 80% | –
YLYHYCVVD [NP-26] | no significant toxic effects | > 80% | –
AATGLYVDQ [NP-24] | no significant toxic effects | > 80% | –
NIIQDFYNPL [NP-31] | – | – | toxic effects on viability of mucosal epithelial tissue, LDH assay [2]: no significant adverse effects; viability [3]: > 80%
CC(C)[C@H](NC(=O)[C@@H](N)CO)C(=O)N[C@H](C(=O)N[C@@H](CCCNC(=N)N)C(=O)O)[C@@H](C)O [NP-E, SVTR] (H-SVTR-OH) | no significant toxic effects | > 80% | –
VASGQKREMG [NP-29] | – | – | toxic effects on viability of mucosal epithelial tissue, LDH assay [2]: no significant adverse effects; viability [3]: > 80%
MTPVNARYEF [NP-28] | no significant adverse effects | > 80% | –
9-desglycinamide, 8-arginine vasopressin [DGAVP] | – | – | increase of bioavailability [5]: 3-5 fold
2-alkyl-4-hydroxyquinolines [pyo compound] | – | – | concentration producing ciliostasis / inhibiting ciliary motility [6]: 50 µg/mL
CC(C)CC(N)B(O)O (centres unmarked) [boro-leucine] | – | – | effectiveness in enzyme inhibition relative to bestatin (aminopeptidases): more than 100 times; effectiveness in enzyme inhibition relative to puromycin (aminopeptidases): more than 1000 times
GILRDFYSPL [NP-27] | no significant adverse effects | > 80% | –
YAGDNIVTAQ [NP-17] | – | – | toxic effects on viability of mucosal epithelial tissue, LDH assay [2]: no significant adverse effects; viability [3]: > 80%
VVPEAQKREM [NP-33] | no significant adverse effects | > 80% | –
